Entries after “also recorded” stand apart in the source; their conditions may differ. Like-named read-outs stand apart in the source and are kept apart here.
How the values were obtained:
interleukin-1β (IL-1β) [1] = target: T1, interleukin-1β (IL-1β) (Homo sapiens, UniProt P01584); type: binding; details: IL-1β in LDAO/10MAG reverse micelles; for extent of binding across the protein surface (in words): Figure 1
[2] = alkane/water partitioning by simple NMR method; type: physicochemical; details: alkane (pentane)/water partitioning
[3] = cited from earlier work
interleukin-1β (IL-1β) [4] = target: T1, interleukin-1β (IL-1β); test: ethanol titration under standard bulk conditions compared with RM titration

T1 sequence (P01584 117-269): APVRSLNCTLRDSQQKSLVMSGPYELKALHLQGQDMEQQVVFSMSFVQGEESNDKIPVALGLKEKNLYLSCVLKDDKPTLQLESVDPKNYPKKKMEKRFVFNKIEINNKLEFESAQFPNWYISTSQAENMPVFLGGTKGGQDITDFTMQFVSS

SMILES	extent of binding across the protein surface (in words) (interleukin-1β (IL-1β) [1])	binding affinity (in words) (interleukin-1β (IL-1β) [1])	further results
c1cncnc1 [pyrimidine]	bind at a larger number of sites		fraction of molecules retained in the RM [2]: over one-third
CNC(C)=O [N-methylacetamide]	relatively sparse binding across the protein surface	relatively weak binding affinities; also recorded: more diffuse and weak	
CC#N [acetonitrile]	relatively sparse binding across the protein surface	more diffuse and weak	binding affinity (in words) (interleukin-1β (IL-1β) [1]; listed as Acetonitrile): relatively weak binding affinities; fraction of molecules retained in the RM [2]: over one-third
c1c[nH]cn1 [imidazole]	bind at a larger number of sites	more specific and with a relatively higher affinity	
CN [methylammonium]	bind at a larger number of sites		
CCCCCCCCCCCC[N+](C)(C)[O-] [LDAO]			pKa [3]: ~ 5
CCO [ethanol]	binding is limited to fewer sites	more specific and with a relatively higher affinity	binding affinity (in words) (interleukin-1β (IL-1β) [1]; listed as Ethanol): relatively high binding affinity within a narrow Kd range; binding in RMs compared with bulk (in words) (interleukin-1β (IL-1β) [4]): binds slightly more weakly to the protein in RMs than in bulk

Reference: publication PMC7051831 (ACS chemical biology, 2019)
